{
  "source": "patent US20250262201A1",
  "about": "“COMPOUNDS AND METHODS USEFUL FOR STABILIZING PHENYLALANINE HYDROXYLASE MUTATIONS” (Agios Pharmaceuticals, Inc., priority 2022, published 2025)",
  "data": [
    {"target": "T1, human PAH with the R408W mutation (Homo sapiens, UniProt P00439, R408W)", "T1 construct": "expressed in transfected cells", "T1 sequence (P00439 1-452 R408W)": "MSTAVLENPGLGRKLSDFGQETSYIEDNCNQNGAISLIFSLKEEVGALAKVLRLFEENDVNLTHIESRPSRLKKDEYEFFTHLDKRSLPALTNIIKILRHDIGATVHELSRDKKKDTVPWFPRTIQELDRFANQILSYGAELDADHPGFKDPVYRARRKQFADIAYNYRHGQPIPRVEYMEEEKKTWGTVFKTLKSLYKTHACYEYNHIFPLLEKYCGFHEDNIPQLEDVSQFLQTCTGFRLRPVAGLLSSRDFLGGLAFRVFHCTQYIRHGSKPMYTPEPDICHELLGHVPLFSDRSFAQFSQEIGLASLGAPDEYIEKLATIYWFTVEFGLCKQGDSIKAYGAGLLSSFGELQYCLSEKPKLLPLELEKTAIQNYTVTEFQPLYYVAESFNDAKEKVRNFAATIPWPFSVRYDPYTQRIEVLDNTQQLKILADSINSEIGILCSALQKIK", "assay": "Cell Based Phenylalanine Flux Assay", "details": "A375 cells expressing human R408W PAH; 24 hrs compound incubation; 13C-Tyrosine by LC-MS; average where tested multiple times; read-out: AC50", "units": {"AC50": "nM"}, "values": [
      {"smiles": "O=C(c1nnc(C2CC2)o1)N1CCc2[nH]cnc2C1c1ccc2ccccc2n1", "note": "(stereo in doubt) [Example 9, (R)-(5-cyclopropyl-1,3,4-oxadiazol-2-yl)(4-(quinolin-2-yl)-6,7-dihydro-1H-imidazo[4,5-c]pyridin-5(4H)-yl)methanone]", "AC50": "500 to 1000"},
      {"smiles": "O=C(c1nnc(C2CC2)o1)N1CCc2[nH]cnc2C1c1ccc2ccccc2n1", "note": "(stereo in doubt) [Example 10, (S)-(5-cyclopropyl-1,3,4-oxadiazol-2-yl)(4-(quinolin-2-yl)-6,7-dihydro-1H-imidazo[4,5-c]pyridin-5(4H)-yl)methanone]", "AC50": "1000 to 5000"},
      {"smiles": "O=C(c1nnc(-c2ccc(F)cc2)o1)N1CCc2[nH]cnc2C1c1ccc2ccccc2n1", "note": "(stereo in doubt) [Example 11, (R)-(5-(4-fluorophenyl)-1,3,4-oxadiazol-2-yl)(4-(quinolin-2-yl)-6,7-dihydro-1H-imidazo[4,5-c]pyridin-5(4H)-yl)methanone]", "AC50": "< 500"},
      {"smiles": "CC(C)(F)c1ncc(C(=O)N2CCc3[nH]cnc3C2c2ccc3ccccc3n2)s1", "note": "(stereo in doubt) [Example 15, (R)-(2-(2-fluoropropan-2-yl)thiazol-5-yl)(4-(quinolin-2-yl)-6,7-dihydro-1H-imidazo[4,5-c]pyridin-5(4H)-yl)methanone]", "AC50": "500 to 1000"},
      {"smiles": "CC(C)(F)c1ncc(C(=O)N2CCc3[nH]cnc3C2c2ccc3ccccc3n2)s1", "note": "(stereo in doubt) [Example 16, (S)-(2-(2-fluoropropan-2-yl)thiazol-5-yl)(4-(quinolin-2-yl)-6,7-dihydro-1H-imidazo[4,5-c]pyridin-5(4H)-yl)methanone]", "AC50": "> 5000"},
      {"smiles": "CC(C)(F)c1ncc(C(=O)N2CCc3[nH]cnc3C2c2ccc3ccccc3n2)o1", "note": "(stereo in doubt) [Example 17, (R)-(2-(2-fluoropropan-2-yl)oxazol-5-yl)(4-(quinolin-2-yl)-6,7-dihydro-1H-imidazo[4,5-c]pyridin-5(4H)-yl)methanone]", "AC50": "< 500"},
      {"smiles": "Fc1ccc(-c2nnc(N3CCc4[nH]cnc4C3c3ccc4ccccc4n3)o2)cc1", "note": "(stereo in doubt) [Example 19, (S)-2-(4-fluorophenyl)-5-(4-(quinolin-2-yl)-6,7-dihydro-1H-imidazo[4,5-c]pyridin-5(4H)-yl)-1,3,4-oxadiazole]", "AC50": "> 5000"},
      {"smiles": "Fc1ccc(-c2nnc(N3CCc4[nH]cnc4C3c3ccc4ccccc4n3)o2)cc1", "note": "(stereo in doubt) [Example 20, (R)-2-(4-fluorophenyl)-5-(4-(quinolin-2-yl)-6,7-dihydro-1H-imidazo[4,5-c]pyridin-5(4H)-yl)-1,3,4-oxadiazole]", "AC50": "500 to 1000"},
      {"smiles": "Cc1nc(C(C)(C)F)oc1C(=O)N1CCc2[nH]cnc2C1c1ccc2ccccc2n1", "note": "(stereo in doubt) [Example 21, (S)-(2-(2-fluoropropan-2-yl)-4-methyloxazol-5-yl)(4-(quinolin-2-yl)-6,7-dihydro-1H-imidazo[4,5-c]pyridin-5(4H)-yl)methanone]", "AC50": "> 5000"},
      {"smiles": "Cc1nc(C(C)(C)F)oc1C(=O)N1CCc2[nH]cnc2C1c1ccc2ccccc2n1", "note": "(stereo in doubt) [Example 22, (R)-(2-(2-fluoropropan-2-yl)-4-methyloxazol-5-yl)(4-(quinolin-2-yl)-6,7-dihydro-1H-imidazo[4,5-c]pyridin-5(4H)-yl)methanone]", "AC50": "< 500"},
      {"smiles": "O=C(c1nnc(-c2c(F)cccc2F)o1)N1CCc2[nH]cnc2C1c1ccc2ccccc2n1", "note": "(stereo in doubt) [Example 23, (R)-(5-(2,6-difluorophenyl)-1,3,4-oxadiazol-2-yl)(4-(quinolin-2-yl)-6,7-dihydro-1H-imidazo[4,5-c]pyridin-5(4H)-yl)methanone]", "AC50": "< 500"},
      {"smiles": "Cc1nc(-c2cnn(C)c2)oc1C(=O)N1CCc2[nH]cnc2C1c1ccc2ccccc2n1", "note": "(stereo in doubt) [Example 25, (S)-(4-methyl-2-(1-methyl-1H-pyrazol-4-yl)oxazol-5-yl)(4-(quinolin-2-yl)-6,7-dihydro-1H-imidazo[4,5-c]pyridin-5(4H)-yl)methanone]", "AC50": "> 5000"},
      {"smiles": "CC(C)(O)c1nnc(C(=O)N2CCc3[nH]cnc3C2c2ccc3ccccc3n2)o1", "note": "(stereo in doubt) [Example 27, (S)-(5-(2-hydroxypropan-2-yl)-1,3,4-oxadiazol-2-yl)(4-(quinolin-2-yl)-6,7-dihydro-1H-imidazo[4,5-c]pyridin-5(4H)-yl)methanone]", "AC50": "> 5000"},
      {"smiles": "CC(C)(O)c1nnc(C(=O)N2CCc3[nH]cnc3C2c2ccc3ccccc3n2)o1", "note": "(stereo in doubt) [Example 28, (R)-(5-(2-hydroxypropan-2-yl)-1,3,4-oxadiazol-2-yl)(4-(quinolin-2-yl)-6,7-dihydro-1H-imidazo[4,5-c]pyridin-5(4H)-yl)methanone]", "AC50": "1000 to 5000"},
      {"smiles": "FC(F)(F)c1cnc(N2CCc3[nH]cnc3C2c2ccc3ccccc3n2)nc1", "note": "(stereo in doubt) [Example 29, (R)-2-(5-(5-(trifluoromethyl)pyrimidin-2-yl)-4,5,6,7-tetrahydro-1H-imidazo[4,5-c]pyridin-4-yl)quinoline]", "AC50": "< 500"},
      {"smiles": "FC(F)(F)c1cnc(N2CCc3[nH]cnc3C2c2ccc3ccccc3n2)nc1", "note": "(stereo in doubt) [Example 30, (S)-2-(5-(5-(trifluoromethyl)pyrimidin-2-yl)-4,5,6,7-tetrahydro-1H-imidazo[4,5-c]pyridin-4-yl)quinoline]", "AC50": "> 5000"},
      {"smiles": "Cc1nc(-c2ccccn2)oc1C(=O)N1CCc2[nH]cnc2C1c1ccc2ccccc2n1", "note": "(stereo in doubt) [Example 31, (R)-(4-methyl-2-(pyridin-2-yl)oxazol-5-yl)(4-(quinolin-2-yl)-6,7-dihydro-1H-imidazo[4,5-c]pyridin-5(4H)-yl)methanone]", "AC50": "500 to 1000"},
      {"smiles": "Cc1nc(-c2ccccn2)oc1C(=O)N1CCc2[nH]cnc2C1c1ccc2ccccc2n1", "note": "(stereo in doubt) [Example 32, (S)-(4-methyl-2-(pyridin-2-yl)oxazol-5-yl)(4-(quinolin-2-yl)-6,7-dihydro-1H-imidazo[4,5-c]pyridin-5(4H)-yl)methanone]", "AC50": "> 5000"},
      {"smiles": "O=C(c1nnc(-c2ccc(F)cn2)o1)N1CCc2[nH]cnc2C1c1ccc2ccccc2n1", "note": "(stereo in doubt) [Example 33, (R)-(5-(5-fluoropyridin-2-yl)-1,3,4-oxadiazol-2-yl)(4-(quinolin-2-yl)-6,7-dihydro-1H-imidazo[4,5-c]pyridin-5(4H)-yl)methanone]", "AC50": "1000 to 5000"},
      {"smiles": "O=C(c1nnc(-c2ccc(F)cn2)o1)N1CCc2[nH]cnc2C1c1ccc2ccccc2n1", "note": "(stereo in doubt) [Example 34, (S)-(5-(5-fluoropyridin-2-yl)-1,3,4-oxadiazol-2-yl)(4-(quinolin-2-yl)-6,7-dihydro-1H-imidazo[4,5-c]pyridin-5(4H)-yl)methanone]", "AC50": "> 5000"},
      {"smiles": "Cc1nc(C2CC2)oc1C(=O)N1CCc2[nH]cnc2C1c1ccc2ccccc2n1", "note": "(stereo in doubt) [Example 35, (R)-(2-cyclopropyl-4-methyloxazol-5-yl)(4-(quinolin-2-yl)-6,7-dihydro-1H-imidazo[4,5-c]pyridin-5(4H)-yl)methanone]", "AC50": "< 500"},
      {"smiles": "Cc1nc(C2CC2)oc1C(=O)N1CCc2[nH]cnc2C1c1ccc2ccccc2n1", "note": "(stereo in doubt) [Example 36, (S)-(2-cyclopropyl-4-methyloxazol-5-yl)(4-(quinolin-2-yl)-6,7-dihydro-1H-imidazo[4,5-c]pyridin-5(4H)-yl)methanone]", "AC50": "> 5000"},
      {"smiles": "O=C(c1ocnc1C(F)(F)F)N1CCc2[nH]cnc2C1c1ccc2ccccc2n1", "note": "(stereo in doubt) [Example 37, (R)-(4-(quinolin-2-yl)-6,7-dihydro-1H-imidazo[4,5-c]pyridin-5(4H)-yl)(4-(trifluoromethyl)oxazol-5-yl)methanone]", "AC50": "< 500"},
      {"smiles": "O=C(c1ocnc1C(F)(F)F)N1CCc2[nH]cnc2C1c1ccc2ccccc2n1", "note": "(stereo in doubt) [Example 38, (S)-(4-(quinolin-2-yl)-6,7-dihydro-1H-imidazo[4,5-c]pyridin-5(4H)-yl)(4-(trifluoromethyl)oxazol-5-yl)methanone]", "AC50": "1000 to 5000"},
      {"smiles": "CC(F)(F)c1ncc(C(=O)N2CCc3[nH]cnc3C2c2ccc3ccccc3n2)s1", "note": "(stereo in doubt) [Example 39, (R)-(2-(1,1-difluoroethyl)thiazol-5-yl)(4-(quinolin-2-yl)-6,7-dihydro-1H-imidazo[4,5-c]pyridin-5(4H)-yl)methanone]", "AC50": "500 to 1000"},
      {"smiles": "CC(F)(F)c1ncc(C(=O)N2CCc3[nH]cnc3C2c2ccc3ccccc3n2)s1", "note": "(stereo in doubt) [Example 40, (S)-(2-(1,1-difluoroethyl)thiazol-5-yl)(4-(quinolin-2-yl)-6,7-dihydro-1H-imidazo[4,5-c]pyridin-5(4H)-yl)methanone]", "AC50": "1000 to 5000"},
      {"smiles": "O=C(CC1CC1)N1CCc2[nH]cnc2C1c1ccc2ccccc2n1", "note": "(stereo in doubt) [Example 41, (R)-2-cyclopropyl-1-(4-(quinolin-2-yl)-6,7-dihydro-1H-imidazo[4,5-c]pyridin-5(4H)-yl)ethanone]", "AC50": "< 500"},
      {"smiles": "O=C(CC1CC1)N1CCc2[nH]cnc2C1c1ccc2ccccc2n1", "note": "(stereo in doubt) [Example 42, (S)-2-cyclopropyl-1-(4-(quinolin-2-yl)-6,7-dihydro-1H-imidazo[4,5-c]pyridin-5(4H)-yl)ethanone]", "AC50": "1000 to 5000"},
      {"smiles": "O=C(c1oc(-c2ccccn2)nc1C1CC1)N1CCc2[nH]cnc2C1c1ccc2ccccc2n1", "note": "(stereo in doubt) [Example 43, (R)-(4-cyclopropyl-2-(pyridin-2-yl)oxazol-5-yl)(4-(quinolin-2-yl)-6,7-dihydro-1H-imidazo[4,5-c]pyridin-5(4H)-yl)methanone]", "AC50": "< 500"}
    ]}
  ]
}
